Laboratory results reported in patent publication US20160060209A1, “BIS A[…] COMPLEXES FOR X-RAY IMAGING” (BAYER PHARMA AKTIENGESELLSCHAFT üß, priority 2013, published 2016).

assay: Stability of bis azainositol hafnium complexes in aqueous buffered solution on heat treatment (steam autoclave); type: physicochemical; conditions: aqueous buffered solution pH 7.4, 5 mmol/L, 121° C. for 45 minutes in steam autoclave; HPLC peak area ratio x metal concentration ratio (ICP-OES)
Protocol: The stability of bis azainositol hafnium complexes was determined in aqueous, buffered solution at pH 7.4. The solution containing 5 mmol/L of the compound in a tightly sealed vessel was heated to 121° C. for 45 minutes in a steam autoclave. The hafnium concentration of the solution was determined by ICP-OES before and after heat treatment. The integrity of the compound was determined by HPLC analysis before and after heat treatment. Absolute stability was calculated as the ratio of the peak area of the compound after and before the heat treatment multiplied with the ratio of the metal concentration of the solution after and before heat treatment.
HPLC system: Column 1: Reversed phase C18.
Solvent A1: 0.5 mM tetrabutylammonium phosphate pH 6 Solvent A2: 0.1% formic acid in water Solvent B1: methanol Solvent B2: acetonitrile
The use of columns, solvents, flow rate and gradients is detailed in the table below. Detector: element specific detection by ICP-MS, running at m/z 180, the most abundant isotope of hafnium

Substance | Stability [%]
Bis[μ3-2,2′-({[1R-(1α,2α,3α,4α,5α,6α)]-2,4,6-trihydroxylato-1κ^2O^2O^6,2κ^2O^2O^4,3κ^2O^4O^6-5-[(2-hydroxylato-3κO-ethyl)amino-3κN^5]cyclohexane-1,3-diyl}diimino-1κN^1,2κN^3)di-acetato-1κO,2κO′]trihafnium (IV) [Example 8] | 100
Bis[μ3-2,2′-({[1R-(1α,2α,3α,4α,5α,6α)]-5-[(2-carboxylato-3κO-ethyl)amino-3κN^5]-2,4,6-trihydroxylato-1κ^2O^2O^6,2κ^2O^2O^4,3κ^2O^4O^6-cyclohexane-1,3-diyl}diimino-1κN^1,2κN^3)di-acetato-1κO,2κO′]trihafnium(IV) [Example 10] | 101
Bis[μ3-3,3′-({[1R-(1α,2α,3α,4α,5α,6α)]-2,4,6-trihydroxylato-1κ^2O^2O^6,2κ^2O^2O^4,3κ^2O^4O^6-5-[(2-hydroxylato-3κO-ethyl)amino-3κN^5]cyclohexane-1,3-diyl}diimino-1κN1,2κN^3)di-propanoato-1κO,2κO′]trihafnium (IV) [Example 3] | 100
Bis[μ3-3,3′-({[1R-(1α,2α,3α,4α,5α,6α)]-5-[(2S,3R)(3,4-dihydroxy-2-hydroxylato-3κO-butyl)amino-3κN^5]-2,4,6-trihydroxylato-1κ^2O^2O^6,2κ^2O^2O^4,3κ^2O^4O^6-cyclohexane-1,3-diyl}diimino-1κN^1,2κN^3)dipropanoato-1κO,2κO′]trihafnium(IV) [Example 5] | 101
Hydroxido-3κO-[μ3-3,3′,3″-({[1R-(1α,2α,3α,4α,5α,6α)]-2,4,6-trihydroxylato-1κ^2O^2O^6, 2κ^2O^2O^4,3κ^2O^4O^6-cyclohexane-1,3,5-triyl}tris{methylimino-1κN^1,2κN^3,3κN^5}) tri-propanoato-1κO,2κO′,3κO″][μ3-3,3′-({[1R-(1α,2α,3α,4α,5α,6α)]-2,4,6-trihydroxylato-1κ^2O^2O^6,2κ^2O^2O^4,3κ^2O^4O^6-5-[methylamino-3κN^5]cyclohexane-1,3-diyl}bis{methyl-imino-1κN^1,2κN^3})dipropanonato-1κO,2κO′]trihafnium (IV) [Example 1] | 100
